US10632195B2, “Pharmaceutical device for electric-field assisted administration of Tapentadol and method of administering Tapentadol with same” (Gruenenthal GmbH, priority 2012, dated 2020)
Where “and” joins values, the source holds several entries; their conditions need not be identical. Equal entries are not always repeated. Structures can show the parent of a compound that is named as a salt.

Assays:
[1] = pH of the donor solution (Tapentadol hydrochloride 100 mM in water) before and after iontophoresis; format: physicochemical
Protocol: (§1) The anode was placed in the donor chamber; the donor solution was 3 ml of Tapentadol hydrochloride (100 mM, i.e. 25.78 mg/ml of Tapentadol hydrochloride, 22.13 mg/ml of base) in water. The cathode was placed in the receptor chamber, which contained 3 ml of phosphate-buffered saline, pH 7.4. Both chambers were stirred by magnets.
(§2) Voltages were as expected for 6 cells in series (range was 6 to 28 volts). The pH of the donor solution was measured after termination of 24 hours of iontophoresis, and ranged from 6.47 to 6.99. The pH of drug in the donor prior to commencing the experiment was 5.07 (5.34 for the 8 hour iontophoresis).

[2] = iontophoretic transdermal delivery of Tapentadol hydrochloride, 8 hours of iontophoresis (example 1a), side-bi-side diffusion cells, constant current 0.25 mA (0.4 mA/cm2), donor 100 mM in water; format: in vitro ADME, pig; details: for drug flux across the skin, Mean ± SD / drug flux across the skin, as tapentadol base, Mean ± SD / cumulative, iontophoretic delivery across the skin, Mean ± SD / cumulative, iontophoretic delivery across the skin, as tapentadol base, Mean ± SD: n=6; for drug flux across the skin, Mean ± SD / drug flux across the skin, as tapentadol base, Mean ± SD / cumulative, iontophoretic delivery across the skin, Mean ± SD / cumulative, iontophoretic delivery across the skin, as tapentadol base, Mean ± SD / drug flux across the skin / cumulative, iontophoretic delivery across the skin: patch area 0.64 cm^2; for drug flux across the skin / cumulative, iontophoretic delivery across the skin: single cells 1-6, hydrochloride
Protocol: Determination of the rate of iontophoretic transdermal delivery of Tapentadol hydrochloride for a period of 8 hours of iontophoresis
Tapentadol hydrochloride (batch no. A0012) was employed. The components of the phosphate buffered saline (PBS) and the mobile phase used were from Sigma, UK. The pig skin was obtained from a local farm, washed with water, excess hair was carefully trimmed with scissors, and the skin was dermatomed using a Zimmer dermatome set at a nominal thickness of 750 μm. The skin was then stored at −20° C.
The drug was delivered from the anode, using side-bi-side (horizontal) glass diffusion cells (n=6) supplied by Permegear, USA. The porcine skin membrane was excised from the dorsal surface.
Electrodes were prepared in-house and were made of silver/silver chloride. To pass current for 24 hours in this set-up, it was necessary for the donor compartment to contain 76 mM chloride ions.
as §1
Current was applied for a total of 8 or 24 hours, respectively.
The receptor solution was sampled and assayed at 0.5, 1, 2, 3, 4, 5, 6, 7, 8 (example 1a) and optionally 24 hours (example 1b) post-initiation of the current. During the 8 hour experiment (example 1a), at 0.5, 1, 2, and 3 hours, 1 ml of receptor solution was removed and replaced with fresh PBS. As it was clear that the amount of Tapentadol in the receptor solution was sufficient for quantitation by HPLC, at the subsequent sampling times of 4, 5, 6, 7 and 8 hours, the entire receptor solution (3 ml) was removed and replaced with fresh PBS, to ensure sink conditions in the receptor. During the 24 hour experiment (example 1b), the entire receptor solution (3 ml) was removed and replaced with fresh PBS at every sampling point.
The concentrations of Tapentadol hydrochloride in the receptor chamber samples were determined by HPLC. A mobile phase consisting of 300:700:1 methanol:water:phosphoric acid was pumped (1 ml/min) through a Acclaim RP-18 (4×150 mm) reverse-phase column (Dionex, UK) at 35° C. Tapentadol concentrations were quantified via their UV absorbance at 215 nm using a calibration curve diluted in PBS at pH 7.4. Injection volume was 20 μl and the retention time for Tapentadol hydrochloride was 12 minutes and the total run time was 16 minutes.
A Tapentadol-free “blank” diffusion cell (donor was saline only) was also prepared and the receptor solution was analysed after 8 hours to confirm no peaks from any component of the skin co-eluted with the Tapentadol hydrochloride.
as §2

In the case of `CC[C@@H](c1cccc(O)c1)[C@@H](C)CN(C)C` [Tapentadol hydrochloride], the “pH of drug in the donor” value ([1]; prior to commencing the experiment (8 hour iontophoresis)) is reported as 5.34, the “pH of drug in the donor” value ([1]; prior to commencing the experiment (24 hour iontophoresis)) is reported as 5.07 and the “drug flux across the skin, Mean ± SD” value ([2]; 0.5 h, iontophoresis) is reported as 8 ± 8 µg/h. The “drug flux across the skin, as tapentadol base, Mean ± SD” value ([2]; 0.5 h, iontophoresis) was 7 ± 6 µg/h, the “cumulative, iontophoretic delivery across the skin, Mean ± SD” value ([2]; 0.5 h) was 4 ± 4 µg and the “cumulative, iontophoretic delivery across the skin, as tapentadol base, Mean ± SD” value (“cumulative … as tapentadol base, Mean ± SD” below) ([2]; 0.5 h) was 3 ± 3 µg. The “drug flux across the skin, Mean ± SD” value ([2]; 1 h, iontophoresis) was 56 ± 28 µg/h, the “drug flux across the skin, as tapentadol base, Mean ± SD” value ([2]; 1 h, iontophoresis) was 48 ± 24 µg/h and the “cumulative, iontophoretic delivery across the skin, Mean ± SD” value ([2]; 1 h) was 32 ± 18 µg. For the same compound, the “cumulative … as tapentadol base, Mean ± SD” value ([2]; 1 h) was 28 ± 15 µg, the “drug flux across the skin, Mean ± SD” value ([2]; 2 h, iontophoresis) was 115 ± 25 µg/h and the “drug flux across the skin, as tapentadol base, Mean ± SD” value ([2]; 2 h, iontophoresis) was 98 ± 21 µg/h. For the same compound, the “drug flux across the skin” value ([2]; 2 h, iontophoresis) was 104 µg/h and 162 µg/h and 119 µg/h and 112 µg/h and 90 µg/h and 102 µg/h, the “cumulative, iontophoretic delivery across the skin, Mean ± SD” value ([2]; 2 h) was 147 ± 40 µg and the “cumulative … as tapentadol base, Mean ± SD” value ([2]; 2 h) was 126 ± 35 µg. For the same compound, the “cumulative, iontophoretic delivery across the skin” value ([2]; 2 h) was 216 µg and 173 µg and 128 µg and 127 µg, the “drug flux across the skin, Mean ± SD” value ([2]; 3 h, iontophoresis) was 193 ± 31 µg/h and the “drug flux across the skin, as tapentadol base, Mean ± SD” value ([2]; 3 h, iontophoresis) was 166 ± 26 µg/h. For the same compound, the “drug flux across the skin” value ([2]; 3 h, iontophoresis) was 190 µg/h and 201 µg/h and 222 µg/h and 184 µg/h and 139 µg/h and 220 µg/h, the “cumulative, iontophoretic delivery across the skin, Mean ± SD” value ([2]; 3 h) was 340 ± 62 µg and the “cumulative … as tapentadol base, Mean ± SD” value ([2]; 3 h) was 291 ± 54 µg. For the same compound, the “cumulative, iontophoretic delivery across the skin” value ([2]; 3 h) was 321 µg and 417 µg and 396 µg and 312 µg and 244 µg and 347 µg, the “drug flux across the skin, Mean ± SD” value ([2]; 4 h, iontophoresis) was 228 ± 23 µg/h and the “drug flux across the skin, as tapentadol base, Mean ± SD” value ([2]; 4 h, iontophoresis) was 196 ± 20 µg/h. For the same compound, the “drug flux across the skin” value ([2]; 4 h, iontophoresis) was 229 µg/h and 257 µg/h and 209 µg/h and 250 µg/h and 196 µg/h, the “cumulative, iontophoretic delivery across the skin, Mean ± SD” value ([2]; 4 h) was 568 ± 68 µg and the “cumulative … as tapentadol base, Mean ± SD” value ([2]; 4 h) was 487 ± 58 µg. The “cumulative, iontophoretic delivery across the skin” value ([2]; 4 h) was 550 µg and 674 µg and 624 µg and 522 µg and 494 µg and 543 µg, the “drug flux across the skin, Mean ± SD” value ([2]; 5 h, iontophoresis) was 246 ± 30 µg/h and the “drug flux across the skin, as tapentadol base, Mean ± SD” value ([2]; 5 h, iontophoresis) was 211 ± 26 µg/h. The “drug flux across the skin” value ([2]; 5 h, iontophoresis) was 242 µg/h and 305 µg/h and 234 µg/h and 238 µg/h and 240 µg/h and 217 µg/h, the “cumulative, iontophoretic delivery across the skin, Mean ± SD” value ([2]; 5 h) was 814 ± 92 µg and the “cumulative … as tapentadol base, Mean ± SD” value ([2]; 5 h) was 699 ± 79 µg. The “cumulative, iontophoretic delivery across the skin” value ([2]; 5 h) was 792 µg and 979 µg and 859 µg and 759 µg and 734 µg and 760 µg, the “drug flux across the skin, Mean ± SD” value ([2]; 6 h, iontophoresis) was 244 ± 18 µg/h and the “drug flux across the skin, as tapentadol base, Mean ± SD” value ([2]; 6 h, iontophoresis) was 209 ± 15 µg/h. The “drug flux across the skin” value ([2]; 6 h, iontophoresis) was 247 µg/h and 275 µg/h and 245 µg/h and 225 µg/h and 242 µg/h and 228 µg/h, the “cumulative, iontophoretic delivery across the skin, Mean ± SD” value ([2]; 6 h) was 1057 ± 107 µg and the “cumulative … as tapentadol base, Mean ± SD” value ([2]; 6 h) was 908 ± 92 µg. For the same compound, the “cumulative, iontophoretic delivery across the skin” value ([2]; 6 h) was 1040 µg and 1253 µg and 1104 µg and 984 µg and 976 µg and 988 µg, the “drug flux across the skin, Mean ± SD” value ([2]; 7 h, iontophoresis) was 261 ± 26 µg/h and the “drug flux across the skin, as tapentadol base, Mean ± SD” value ([2]; 7 h, iontophoresis) was 224 ± 22 µg/h. For the same compound, the “drug flux across the skin” value ([2]; 7 h, iontophoresis) was 264 µg/h and 295 µg/h and 271 µg/h and 260 µg/h and 261 µg/h and 215 µg/h, the “cumulative, iontophoretic delivery across the skin, Mean ± SD” value ([2]; 7 h) was 1319 ± 128 µg and the “cumulative … as tapentadol base, Mean ± SD” value ([2]; 7 h) was 1132 ± 110 µg. The “cumulative, iontophoretic delivery across the skin” value ([2]; 7 h) was 1304 µg and 1548 µg and 1375 µg and 1244 µg and 1237 µg and 1203 µg, the “drug flux across the skin, Mean ± SD” value ([2]; 8 h, iontophoresis) was 260 ± 46 µg/h and the “drug flux across the skin, as tapentadol base, Mean ± SD” value ([2]; 8 h, iontophoresis) was 224 ± 40 µg/h. The “drug flux across the skin” value ([2]; 8 h, iontophoresis) was 260 µg/h and 353 µg/h and 241 µg/h and 234 µg/h and 242 µg/h and 232 µg/h, the “cumulative, iontophoretic delivery across the skin, Mean ± SD” value ([2]; 8 h) was 1579 ± 171 µg and the “cumulative … as tapentadol base, Mean ± SD” value ([2]; 8 h) was 1356 ± 147 µg. For the same compound, the “cumulative, iontophoretic delivery across the skin” value ([2]; 8 h) was 1564 µg and 1901 µg and 1616 µg and 1479 µg and 1435 µg and the “time by which steady-state flux appears to have been reached” value ([2]; example 1a, iontophoresis) was 5 to 6 h.
